From patent US20230295201A1 (Gilead Sciences, Inc., priority 2020, published 2023)
Where two headings read alike, the source gives them in different places.

Key:
Format in all cases: cell-based
[1] = tested on: RSV strain A2; experiment: RSV HEp-2 EC50 (infectious cytopathic cell protection assay); conditions: read-out: RSV HEp-2 EC50
Summary of the method: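 HEp-2 cells mixed with titered RSV A2 at 50,000 cells/ml were added to plates holding 3-fold serial compound dilutions in DMSO, then incubated 4 days at 37° C. Cytoprotection was read as cell viability by CellTiter-Glo luminescence and converted to percent inhibition against 0% and 100% inhibition controls.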

[2] = tested on: RSV A2; experiment: RSV NHBE EC50 (RSV A2 antiviral assay in normal human bronchial epithelial cells); conditions: read-out: RSV NHBE EC50
[3] = tested on: DENV2 replicon; experiment: DENV-2 Huh-7 Rep EC50 (replicon luminescence); conditions: read-out: DENV-2 Huh-7 Rep EC50
Summary of the method: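 Huh-7 cells carrying a DENV2 replicon, 5,000 cells/well, were incubated with dosed compounds for 48 h at 37° C. EnduRen live-cell substrate was added 1.5 h before luminescence reading. EC50 came from dose-response against DMSO-only wells.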

[4] = tested on: HRV16; experiment: HRV16 HELA EC50 (cytopathic effect in H1-HeLa cells)
Summary of the method: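 H1-HeLa cells seeded one day before, given 3-fold serial compound dilutions in triplicate just prior to infection with pre-titrated virus. Incubated 96 h at 33 °C/5% CO2; protection from cytopathic effect read as viability by CellTiter-Glo luminescence, normalised to infected untreated (0%) and uninfected (100%) controls.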

[5] = human respiratory syncytial virus, NHBE, 96 h, NHBE cells, RSV A2, 4 days
[6] = Dengue virus, DENV2, Huh-7, 48 h, Huh-7 replicon cells, 48 hours
[7] = 96 h, H1-HeLa cells, 33° C., read-out: HRV16 HELA EC50
[8] = H1-HeLa cells, 96 h, 33° C.; read-out: HRV16 HELA EC50
[9] = human respiratory syncytial virus, HEp-2, 96 h, HEp-2 cells, RSV A2, 4 days
[10] = human respiratory syncytial virus, HEp-2, 96 h
[11] = human respiratory syncytial virus, NHBE, 96 h
[12] = Dengue virus, DENV2, Huh-7, 48 h
[13] = 96 h, read-out: HRV16 HELA EC50

| SMILES | EC50 ([1]; HEp-2 cells, RSV A2, 4 days) | EC50 [2, 5] | EC50 [3, 6] | EC50 [4, 7] | EC50 ([2]; NHBE cells, RSV A2, 4 days) | EC50 [1, 9] | also measured |
| --- | --- | --- | --- | --- | --- | --- | --- |
| C[C@H](NP(=O)(OC[C@@]1(C#N)O[C@@H](c2ccc3c(N)ncnn23)[C@H](O)[C@@H]1O)Oc1ccccc1)C(=O)OC1CCOCC1 (single isomer, unassigned) [Example 56] | 4.17 µM | 2.24 µM | > 50 µM | 7.96 µM | – | – | – |
| C[C@H](NP(=O)(OC[C@@]1(C#N)O[C@@H](c2ccc3c(N)ncnn23)[C@H](O)[C@@H]1O)Oc1ccccc1)C(=O)OC1CCOCC1 (single isomer, unassigned) [Example 57] | 1.49 µM | – | – | – | > 4.18 µM | – | EC50 ([3]; Huh-7 replicon cells, 48 hours): > 50 µM; EC50 [4, 8]: 5.48 µM |
| CC(C)OC(=O)[C@H](C)N[P@@](=O)(OC[C@@]1(C#N)O[C@@H](c2ccc3c(N)ncnn23)[C@H](O)[C@@H]1O)Oc1ccccc1 (single isomer, unassigned) [Example 78] | – | 1.77 µM | > 50 µM | 2.26 µM | – | 2.04 µM | – |
| CCC(CC)COC(=O)[C@@H](C)NP(=O)(OC[C@@]1(C#N)O[C@@H](c2ccc3c(N)ncnn23)[C@H](O)[C@@H]1O)Oc1ccccc1 (single isomer, unassigned) [Example 84] | 8.07 µM | – | – | – | 1.13 µM | – | EC50 ([3]; Huh-7 replicon cells, 48 hours): > 50 µM; EC50 [4, 8]: 19.9 µM |
| CC[C@H](NP(=O)(OC[C@@]1(C#N)O[C@@H](c2ccc3c(N)ncnn23)[C@H](O)[C@@H]1O)Oc1ccccc1)C(=O)OC1CCCC1 (single isomer, unassigned) [Example 111] | 3.97 µM | – | > 50 µM | 25.3 µM | > 1.48 µM | – | – |
| N#C[C@]1(COP(=O)(NCC(=O)OC2CCCC2)Oc2ccccc2)O[C@@H](c2ccc3c(N)ncnn23)[C@H](O)[C@@H]1O (single isomer, unassigned) [Example 113] | – | 0.352 µM | 42.7 µM | 2.64 µM | – | 0.611 µM | – |
| N#C[C@]1(COP(=O)(NCC(=O)OC2CCCC2)Oc2ccccc2)O[C@@H](c2ccc3c(N)ncnn23)[C@H](O)[C@@H]1O (single isomer, unassigned) [Example 114] | 0.974 µM | – | – | – | 0.255 µM | – | EC50 ([3]; Huh-7 replicon cells, 48 hours): > 50 µM; EC50 [4, 8]: 4.7 µM |
| CCC(CC)COC(=O)[C@H](CC(C)C)NP(=O)(OC[C@@]1(C#N)O[C@@H](c2ccc3c(N)ncnn23)[C@H](O)[C@@H]1O)Oc1ccccc1 (single isomer, unassigned) [Example 129] | 42.9 µM | – | 26.7 µM | 41.6 µM | > 5 µM | – | – |
| C[C@H](NP(=O)(OC[C@@]1(C#N)O[C@@H](c2ccc3c(N)ncnn23)[C@H](O)[C@@H]1O)Oc1ccccc1)C(=O)OC1CCCCCC1 (single isomer, unassigned) [Example 136] | 2.77 µM | – | 51.1 µM | 0.577 µM | 0.095 µM | – | – |
| C[C@H](NP(=O)(OC[C@@]1(C#N)O[C@@H](c2ccc3c(N)ncnn23)[C@H](O)[C@@H]1O)Oc1ccccc1)C(=O)OC1CCC(F)(F)CC1 (single isomer, unassigned) [Example 176] | 0.161 µM | – | – | 0.547 µM | 1.64 µM | – | EC50 ([3]; Huh-7 replicon cells, 48 hours): 28.6 µM |
| C[C@H](NP(=O)(OC[C@@]1(C#N)O[C@@H](c2ccc3c(N)ncnn23)[C@H](O)[C@@H]1O)Oc1ccccc1)C(=O)O[C@H]1CC[C@@H](C(F)(F)F)CC1 (single isomer, unassigned) [Example 180] | 0.142 µM | – | 6.62 µM | 0.851 µM | 0.833 µM | – | – |
| C[C@@H](NP(=O)(OC[C@@]1(C#N)O[C@@H](c2ccc3c(N)ncnn23)[C@H](O)[C@@H]1O)Oc1ccccc1)C(=O)O[C@H]1CC[C@H](C(F)(F)F)CC1 (single isomer, unassigned) [Example 195] | – | 0.678 µM | > 100 µM | – | – | 2.59 µM | EC50 [4, 8]: 2.55 µM |
| CCC(CC)COC(=O)[C@H](C)N[P@@](=O)(OC[C@@]1(C#N)O[C@@H](c2ccc3c(N)ncnn23)[C@H](O)[C@@H]1O)Oc1ccccc1 (single isomer, unassigned) [Example 207] | – | 0.091 µM | 4.84 µM | 0.183 µM | – | 0.124 µM | – |
| CCOC(=O)C1CCCN1P(=O)(OC[C@@]1(C#N)O[C@@H](c2ccc3c(N)ncnn23)[C@H](O)[C@@H]1O)Oc1ccccc1 (stereo in doubt) [Example 117, (2R)-ethyl 1-((((2R,3S,4R,5S)-5-(4-aminopyrrolo[2,1-f][1,2,4]triazin-7-yl)-2-cyano-3,4-dihydroxytetrahydrofuran-2-yl)methoxy)(phenoxy)phosphoryl)pyrrolidine-2-carboxylate] | – | – | – | – | – | – | EC50 [1, 10]: > 100 µM; EC50 [2, 11]: > 5 µM; EC50 [3, 12]: > 100 µM; EC50 [4, 13]: > 100 µM |
| CCCCOC(=O)C1CCCN1P(=O)(OC[C@@]1(C#N)O[C@@H](c2ccc3c(N)ncnn23)[C@H](O)[C@@H]1O)Oc1ccccc1 (stereo in doubt) [Example 124, (2R)-butyl 1-((((2R,3S,4R,5S)-5-(4-aminopyrrolo[2,1-f][1,2,4]triazin-7-yl)-2-cyano-3,4-dihydroxytetrahydrofuran-2-yl)methoxy)(phenoxy)phosphoryl)pyrrolidine-2-carboxylate] | – | – | – | – | – | – | EC50 [1, 10]: > 100 µM; EC50 [2, 11]: > 5 µM; EC50 [3, 12]: > 100 µM; EC50 [4, 13]: > 86.4 µM |
| CCOC(=O)[C@H](Cc1ccccc1)NP(=O)(OC[C@@]1(C#N)O[C@@H](c2ccc3c(N)ncnn23)[C@H](O)[C@@H]1O)Oc1ccccc1 (stereo partly drawn) [Example 3, (2S)-ethyl 2-(((((2R,3S,4R,5S)-5-(4-aminopyrrolo[2,1-f][1,2,4]triazin-7-yl)-2-cyano-3,4-dihydroxytetrahydrofuran-2-yl)methoxy)(phenoxy)phosphoryl)amino)-3-phenylpropanoate] | – | 1.69 µM | > 100 µM | 8.96 µM | – | 4.09 µM | – |
| C[C@H](NP(=O)(N[C@@H](C)C(=O)OC1CCCCC1)OC[C@@]1(C#N)O[C@@H](c2ccc3c(N)ncnn23)[C@H](O)[C@@H]1O)C(=O)OC1CCCCC1 [Example 14] | – | – | – | – | – | – | EC50 ([1]; human respiratory syncytial virus, 96 h, HEp-2 cells, RSV A2, 4 days): 3.65 µM; EC50 ([2]; human respiratory syncytial virus, 96 h, NHBE cells, RSV A2, 4 days): 1.27 µM; EC50 [3, 12]: > 100 µM; EC50 [4, 8]: 12.4 µM |
| C[C@H](NP(=O)(OC[C@@]1(C#N)O[C@@H](c2ccc3c(N)ncnn23)[C@H](O)[C@@H]1O)Oc1ccccc1)C(=O)O[C@H]1CCN(C)C1 (stereo partly drawn) [Example 15, (S)-1-methylpyrrolidin-3-yl ((((2R,3S,4R,5S)-5-(4-aminopyrrolo[2,1-f][1,2,4]triazin-7-yl)-2-cyano-3,4-dihydroxytetrahydrofuran-2-yl)methoxy)(phenoxy)phosphoryl)-L-alaninate] | – | 3.25 µM | > 50 µM | 11.4 µM | – | 4.33 µM | – |
| C[C@H](NP(=O)(OC[C@@]1(C#N)O[C@@H](c2ccc3c(N)ncnn23)[C@H](O)[C@@H]1O)Oc1ccccc1)C(=O)O[C@H]1CC[C@H](C(F)(F)F)CC1 (stereo partly drawn) [Example 16, trans-4-(trifluoromethyl)cyclohexyl ((((2R,3S,4R,5S)-5-(4-aminopyrrolo[2,1-f][1,2,4]triazin-7-yl)-2-cyano-3,4-dihydroxytetrahydrofuran-2-yl)methoxy)(phenoxy)phosphoryl)-L-alaninate] | – | 0.104 µM | 70.8 µM | 1.31 µM | – | 1.29 µM | – |
| C[C@H](NP(=O)(OC[C@@]1(C#N)O[C@@H](c2ccc3c(N)ncnn23)[C@H](O)[C@@H]1O)Oc1ccccc1)C(=O)OCC1CCOCC1 (stereo partly drawn) [Example 20, (tetrahydro-2H-pyran-4-yl)methyl ((((2R,3S,4R,5S)-5-(4-aminopyrrolo[2,1-f][1,2,4]triazin-7-yl)-2-cyano-3,4-dihydroxytetrahydrofuran-2-yl)methoxy)(phenoxy)phosphoryl)-L-alaninate] | – | 2.23 µM | > 50 µM | 4.88 µM | – | 0.877 µM | – |
| C[C@H](NP(=O)(OC[C@@]1(C#N)O[C@@H](c2ccc3c(N)ncnn23)[C@H](O)[C@@H]1O)Oc1ccccc1)C(=O)O[C@H]1CC[C@H](C(C)(C)C)CC1 (stereo partly drawn) [Example 21, trans-4-(tert-butyl)cyclohexyl ((((2R,3S,4R,5S)-5-(4-aminopyrrolo[2,1-f][1,2,4]triazin-7-yl)-2-cyano-3,4-dihydroxytetrahydrofuran-2-yl)methoxy)(phenoxy)phosphoryl)-L-alaninate] | – | 0.027 µM | 11 µM | 0.23 µM | – | 0.079 µM | – |
